Experimental data from PMC12029786 (2025).

Assays:
[1] = system: 17-3 RNA (RNA, aptamer) GGGAGACGCAACUGAAUGAAGAGCAGUAGCGAGUAGUUCACAAGAGCUGCUUCGGCAGGAUCUUGUAGGAAGUAAAUGUGCAAAUCCGUAACUAGUCGCGUCAC; experiment: fluorescence enhancement titration; details: 50 mM Mg2+; 40 mM Tris-Cl pH 7.5, 37 °C; 5 nM DMHBI titrated with RNA; Hill fit
[2] = system: 17-3minCP (RNA, aptamer) GGGCUUGUAGGAAGUAAAUGUGCAAAUCCGUAACUAGCUUCGGCUGAAUGAAGAGCAGUAGCGAGUAGUUCACAAGCCU; experiment: fluorescence enhancement; details: 10 mM Mg2+; 40 mM Tris-Cl pH 7.5, 37 °C; 0.1 μM RNA, 0.1 μM DMHBI
[3] = system: fr-1 RNA + fr-2 RNA (RNA, aptamer) GGUUUCCCCGAAGAGCAGUAGCGAGUAGGGGCCCAGCU/GGCUGGGAGGAAGUAAAUGUGCAAAUCCGUAACUAAACU; experiment: fluorescence enhancement; details: 10 mM Mg2+; 40 mM Tris-Cl pH 7.5, 37 °C; 0.1 μM each RNA, 0.1 μM DMHBI
[4] = system: m3 mutant of Karashi RNA (RNA, aptamer) GGGCUGCCUGAAGAGCAGUAGCGAGUAGGGCACAAGCUUCGGCUUGUAGGAAGUAAAUGUGCAAAUCCGUAACUAGCCU; experiment: fluorescence enhancement; details: 10 mM Mg2+; 40 mM Tris-Cl pH 7.5, 37 °C; 0.1 μM RNA, 0.1 μM DMHBI
[5] = system: Karashi A51G (RNA, aptamer) GGGCUGAAUGAAGAGCAGUAGCGAGUAGUUCACAAGCUUCGGCUUGUAGGGAGUAAAUGUGCAAAUCCGUAACUAGCCU; experiment: fluorescence enhancement; details: 10 mM Mg2+; 40 mM Tris-Cl pH 7.5, 37 °C; 0.1 μM RNA, 0.1 μM DMHBI
[6] = system: Karashi G69A (RNA, aptamer) GGGCUGAAUGAAGAGCAGUAGCGAGUAGUUCACAAGCUUCGGCUUGUAGGAAGUAAAUGUGCAAAUCCAUAACUAGCCU; experiment: fluorescence enhancement; details: 10 mM Mg2+; 40 mM Tris-Cl pH 7.5, 37 °C; 0.1 μM RNA, 0.1 μM DMHBI
[7] = system: Karashi (17-3min RNA) (RNA, aptamer) GGGCUGAAUGAAGAGCAGUAGCGAGUAGUUCACAAGCUUCGGCUUGUAGGAAGUAAAUGUGCAAAUCCGUAACUAGCCU; experiment: fluorescence enhancement; details: 10 mM Mg2+; 40 mM Tris-Cl pH 7.5, 37 °C; 0.1 μM RNA, 0.1 μM DMHBI
[8] = system: Jigarashi RNA (RNA, aptamer) GGUUUCCCCGAAGAGCAGUAGCGAGUAGGGGCCCAGCUUCGGCUGGGAGGAAGUAAAUGUGCAAAUCCGUAACUAAACU; experiment: fluorescence enhancement; details: 10 mM Mg2+; 40 mM Tris-Cl pH 7.5, 37 °C; 0.1 μM RNA, 0.1 μM DMHBI
[9] = system: m1 mutant of 17-3min RNA (RNA, aptamer) GGGCUGUUUGAAGAGCAGUAGCGAGUAGAACACAAGCUUCGGCUUGUAGGAAGUAAAUGUGCAAAUCCGUAACUAGCCU; experiment: fluorescence enhancement; details: 10 mM Mg2+; 40 mM Tris-Cl pH 7.5, 37 °C; 0.1 μM RNA, 0.1 μM DMHBI

## COc1cc(/C=C2\N=C(C)N(C)C2=O)cc(OC)c1O
[1]
  Kd: 0.043 µM
[2]
  binding: yes
[3]
  binding: yes
[4]
  binding: yes
[5]
  binding: yes
[6]
  binding: yes
[7]
  binding: yes
[8]
  binding: yes
[9]
  binding: yes
